Results from US20240325548A1, “DYNAMIC BIOACTIVE SCAFFOLDS AND THERAPEUTIC USES THEREOF AFTER CNS INJURY” (Northwestern University, priority 2021, published 2024).

Assays:
β1-INTEGRIN (ITGB1) = target: T1, β1-INTEGRIN (ITGB1) (Homo sapiens, UniProt P05556); assay: ITGB1 activation and intracellular signaling in hNPCs treated with IKVAV PAs (confocal microscopy, WB); assay type: cell-based; conditions: for active ITGB1 and downstream effectors ILK and p-FAK: relative to other IKVAV PAs, IKVAV peptide, laminin or ornithine; for activation of ITGB1 and downstream pathway (ILK, p-FAK/FAK) with Ca2+ added: PA mixed with 5 mM CaCl2
T1 construct: endogenous in cells; host or cells: hNPCs differentiated from human embryonic stem cells HUES 64
Source text: Neural progenitor cells (NPCs) were differentiated from human embryonic stem cells HUES 64 (Harvard University) (see FIG. 2C). In short, 70% confluent stem cell cultures grown in Matrigel (Thermo Fisher) coated plates with mTESR medium (STEMCELL Technologies), were switched to N2B27 medium (50% DMEM: F12, 50% Neurobasal, supplemented with NEAA, Glutamax, N2 and B27; Gibco) containing dual SMAD inhibitors (SB431542, DNSK International and LDN-193189, Tocris) for 12 days to induce the generation of neural progenitors. Neuralization was enhanced by supplementing medium with laminin from day 5 to 12. Next, neural rosettes were dissociated with neural rosette selection reagent (STEMCELL Technologies) to obtain NPCs, which are expanded in N2B27 (Gibco) medium supplemented with bFGF (Millipore). For experimentation in the different PA platforms, NPCs were dissociated with Accutase (Innovative Cell technology), and cultured in the distinct platforms with DMEM: F12+N2+B27 medium with hyclone penicillin-streptomycin (GE Healthcare) and ascorbic acid (0.2 μg/mL; Sigma-Aldrich).
For IKVAV PA treatments, hNPCs were cultured on ornithine coatings (German Glass, Chemglass Life Science) in 6 well and 24 well plates at a density of 500,000 cells/well and 80,000 cells/well respectively. hNPCs were treated with […] of IKVAV PAs ([PA]=6 mM, [KCl]=3 mM, [NaCl]=150 mM) or recombinant laminin protein (10 mg/mL) in solution. IKVAV PA2 and IKVAV PA5 were also mixed with 5 mM CaCl2) at a ratio PA:CaCl2) 6:1 to treat hNPCs. For 2D experiments, hNPCs were cultured on the different IKVAV PAs or laminin coatings in 6 well and 24 well plates at densities mentioned above. For co-assembled experiments, hNPCs were cultured on the different co-assembled PA coatings in 6 well and 24 well plates at a density of 400,000 cells/well and 50,000 cells/well respectively.
hNPCs were fed 4 times a week with DMEM: F12+N2^+B27 medium with hyclone penicillin-streptomycin and ascorbic acid. After 24 h, 72 h 1- or 2-weeks in vitro, cell lysates were harvested or fixed for WB or ICC, respectively. Three replicates per condition and at least three independent experiments were carried out for all conditions investigated.
For immunofluorescence, fixed primary cultures or free-floating tissue sections (40 m Thick) were incubated in blocking buffer containing 0.02% Triton-X (Sigma-Aldrich), 1% NHS (Gibco) and PBS 1× (Gibco). Samples were incubated with primary antibodies over night at 4° C. Alexa-488, Alexa-555 and/or Alexa-647 (1:500, Thermofisher) were used as secondary antibodies. DAPI (1:500, Thermofisher) was used to stain nuclei. Finally, the samples were mounted on coverslips with Immu-Mount (Fisher Scientific) solution for imaging.
RIPA buffer (Thermofisher) with a cocktail of Halt Protease and Phosphatase Inhibitors (Thermofisher) was used to extract protein from in vitro and in vivo samples. For in vivo studies, spinal cord tissue was then sonicated using a horn sonicator (Branson) to break up the tissue. A Pierce™ BCA Protein Assay Kit (Thermofisher) was used to determine protein content for all samples used. Protein extracts obtained from cell cultures or tissue were separated using an SDS-polyacrylamide gel and electro-transferred to a nitrocellulose membrane (Bio-Rad). Membranes were blocked for 30 minutes to 1 hour using a 5% milk solution (Bio-Rad) and incubated over night with primary antibodies. Corresponding secondary HRP-conjugated antibodies (1:1000, ThermoFisher) were used for 1 h at room temperature. Radiance Bioluminescent ECL substrate (Azure Biosystems) was used to detect protein signal. The membranes were imaged using the Azure Biosystems imager and densitometry analysis were performed using ImageJ software.

[1] = Fluorescence depolarization (FD) with DPH encapsulated in PA nanofibers; assay type: physicochemical; conditions: for fluorescence anisotropy: DPH probe in hydrophobic core of IKVAV PA nanofibers; for supramolecular motion on addition of Ca2+: 5 mM CaCl2, confirmed by FD and T2-NMR
Protocol: An aqueous solution of 100 μL of annealed PA ([PA]=6 mM, [KCl]=3 mM, [NaCl]=150 mM) was added a THF solution (2 μL) of 1,6-diphenyl-1,3,5-hexatriene (DPH; 1.4 mM), and the mixture was incubated for 30 min at 25° C. Then, the mixture was diluted with aqueous KCl and NaCl (1900 μL, [KCl]=3 mM, [NaCl]=150 mM), incubated for 10-30 min at 25° C. to afford a solution of DPH (1.4 μM)-embedded PA (300 μM). To obtain IKVAV PA2 (A2G2) or IKVAV PA5 (G4) in the presence of CaCl2), 5 mM CaCl2) was then added to the DPH-embedded PA aqueous solution to afford PA: CaCl2) at a molar ratio of 6:1. DPH was exited at 336 nm and emission was recorded at 450 nm on an ISS model PC1 spectrofluorometer with a 300 W xenon arc lamp with power of 18 A. Excitation slit and emission slit widths were set as 1 mm (8 nm bandwidth). Anisotropy was calculated using the following equation: […]
Where F∥ represents the parallel intensity to the excitation plane, F⊥ is the perpendicular intensity to the excitation plane, g is grating factor (G-factor) that represents the intensity ratio of the sensitivity of the detection system for vertically and horizontally polarized light. G-factors were determined individually in each measurement. Results were averaged based on 34 iterations from two measurements.

[2] = Small- and wide-angle X-ray scattering (SAXS/WAXS) of PA nanofibers; assay type: physicochemical; conditions: PA nanofibers in solution
Protocol: Small-angle X-ray scattering (SAXS), medium-angle X-ray scattering (MAXS), a wide-angle X-ray scattering (WAXS) experiments were performed at beamline 5-ID-D of the DuPont-Northwestern-Dow Collaborative Access Team (DND-CAT) Synchrotron Research Center at the Advanced Photon Source, Argonne National Laboratory. 100-150 μL of sample solution ([PA]=1-3 w/v % (˜6-10 mM) in aqueous NaCl and KCl ([NaCl]=150 mM and [KCl]=3 mM)) was introduced into capillary flow-cell with a fixed diameter and irradiated with X-ray for an exposure time of 0.5, 2, 3, or 10 s. Samples were oscillated at a rate of […] in the capillary with a syringe pump during sample measurement to prevent damage due to beam overexposure. Data was collected with an X-ray energy at 17 keV ([…]) with a triple-area detector system. The scattering intensity was recorded in the interval 0.002390<q<4.4578 Å^−1. The wave vector q is defined as =(4π/λ) sin(θ/2), where θ is the scattering angle. The acquired 2D scattering data were then reduced to 1D intensity vs. wavevector plots via azimuthal integration around the beam center in GSAS-II software. Background scattering patterns were obtained from samples containing 150 mM NaCl and 3 mM KCl. This background data was then subtracted from experimental data. All data was analyzed using the Irena software package running on IgorPro software.

T1 sequence (P05556 21-798): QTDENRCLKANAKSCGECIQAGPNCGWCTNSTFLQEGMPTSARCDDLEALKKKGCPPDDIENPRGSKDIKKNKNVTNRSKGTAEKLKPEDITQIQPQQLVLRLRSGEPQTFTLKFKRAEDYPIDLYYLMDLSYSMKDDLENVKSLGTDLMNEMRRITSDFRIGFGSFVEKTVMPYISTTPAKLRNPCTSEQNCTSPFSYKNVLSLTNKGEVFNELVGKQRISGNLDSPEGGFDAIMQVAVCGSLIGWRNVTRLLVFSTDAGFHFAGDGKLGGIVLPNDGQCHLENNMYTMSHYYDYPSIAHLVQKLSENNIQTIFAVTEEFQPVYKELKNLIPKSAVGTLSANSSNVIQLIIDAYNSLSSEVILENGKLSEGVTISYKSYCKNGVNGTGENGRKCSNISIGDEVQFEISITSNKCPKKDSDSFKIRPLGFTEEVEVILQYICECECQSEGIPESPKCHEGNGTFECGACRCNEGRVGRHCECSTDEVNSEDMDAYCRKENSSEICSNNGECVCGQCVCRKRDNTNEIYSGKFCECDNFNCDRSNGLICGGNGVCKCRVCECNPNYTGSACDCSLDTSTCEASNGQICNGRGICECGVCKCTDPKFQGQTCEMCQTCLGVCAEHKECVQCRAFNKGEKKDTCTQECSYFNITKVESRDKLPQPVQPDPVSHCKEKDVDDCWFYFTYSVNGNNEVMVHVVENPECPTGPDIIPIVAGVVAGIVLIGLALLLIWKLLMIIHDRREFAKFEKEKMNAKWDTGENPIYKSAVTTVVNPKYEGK

in vitro bioactivity (summary) (β1-INTEGRIN (ITGB1))	active ITGB1 and downstream effectors ILK and p-FAK (β1-INTEGRIN (ITGB1))	fluorescence anisotropy [1]	SAXS slope in the Guinier region [2]	activation of ITGB1 and downstream pathway (ILK, p-FAK/FAK) with Ca2+ added (β1-INTEGRIN (ITGB1))	supramolecular motion on addition of Ca2+ [1]	Substance
low level of in vitro bioactivity	–	–	–	–	–	C16-V2A2E4GIKVAV [IKVAV PA1]
low level of in vitro bioactivity	intermediate level of activation	0.30	–	–	–	C16-VAG2E4GIKVAV [IKVAV PA4]
–	substantially higher	0.21	−1.2	decreased	suppressed	C16-A2G2E4GIKVAV [IKVAV PA2]
–	substantially higher	0.18	−0.2	decreased	suppressed	C16-G4E4GIKVAV [IKVAV PA5]
